From US20120003156A1, “METHODS FOR TREATING NEOPLASIA BY INHIBITING LACTATE DEHYDROGENASE AND/OR NICOTINAMIDE PHOSPHORIBOSYLTRANSFERASE” (The Johns Hopkins University, priority 2008, published 2012)

What was measured:
[1] = tested on: human pancreatic cell line P10; assay: Cell growth; format: cell-based
[2] = tested on: P493 cells; assay: ROS measurement by DCFDA flow cytometry; format: cell-based, human; details: 9 μM FX11 or FK866, 24 hours
Procedure: The measurement of intracellular ROS production was measured by staining cells with 5-(and-6)-carboxy-2′,7′-dichlorodihydrofluorescein diacetate (carboxy-H2DCFDA; Molecular Probes) according to the manufacturer's instructions. 10^5 cells/ml were treated with 9 μM FX11 or FK866 for 24 hours. Stained cells were analyzed in FACScan flow cytometers (BD Bioscience).

[3] = tested on: P493 cells; assay: Annexin V / 7-AAD cell death assay; format: cell-based, human; details: 24 hours of FX11 treatment
[4] = tested on: P493 cells; assay: Mitochondrial membrane potential by JC-1 flow cytometry; format: cell-based, human; details: 9 μM FX11 or/and FK866, 24 hours
Source text: The lipophilic cation dye (5,5′,6,6′-tetrachloro-1,1′,3,3′-tetraethylbenzimidazolcarbocyanine iodide, JC-1) (Invitrogen) was used to detect the loss of the mitochondrial membrane potential. The negative charge established by the intact mitochondrial membrane potential lets the lipophilic dye stain the mitochondria bright red which emits in channel 2 (FL2). When the mitochondrial membrane potential collapses, JC-1 remains in the cytoplasm in a green fluorescent monomeric emission in channel 1 (FL1). JC-1 reversibly changes its color from green to orange as membrane potentials increase (over values of 80-100 mV). 10^5 cells/ml were treated with 9 μM FX11 or/and FK866 for 24 hours. Stained cells were analyzed in FACScan flow cytometers (BD Bioscience).

[5] = tested on: P493 cells; assay: ATP levels, luciferin-luciferase-based assay; format: cell-based, human; details: 9 μM FX11 or 0.5 nM FK866, 20 hours
Procedure: P493 cells were treated with 9 μM FX11 or 0.5 nM FK866 for 20 hours and counted. ATP levels were determined by luciferin-luciferase-based assay (Promega) on aliquots containing equal number of cells according to standard protocol.

[6] = tested on: P198 human pancreatic cancer cells; assay: Cell population growth; format: cell-based; details: 1% O2 vs normoxia
Procedure: (§1) P493 human lymphoma B cells were maintained in RPMI 1640 with 10% fetal bovine serum (FBS) and 1% penicillin-streptomycin. P198 human pancreatic cancer cells; RCC4, RCC4-VHL human renal carcinoma cells; MCF-7 and MDA-MB-453 breast cancer cells were maintained in high glucose (4.5 mg/ml) DMEM with 10% FBS and 1% penicillin-streptomycin. Non-hypoxic cells (20% O2) were maintained at 37° C. in a 5% CO2, 95% in an air incubator. Hypoxic cells (1% O2) were maintained in a controlled atmosphere chamber (PLAS-LABS, Lansing, Mich.) with a gas mixture containing 1% O2, 5% CO2, and 94% N2 at 37° C. for the indicated time. Bright live cells were counted daily in a hemacytometer using trypan blue dye to exclude dead cells. All cells were grown at a concentration of 10^5 cells/ml. All drugs treatment began at day 0.
siRNAs targeting human LDHA (ON-TARGETplus SMARTpool) were purchased from Dharmacon Research Inc. Targeting sequences for LDHA were a pool of the following four target sequences: sequence 1, […]; sequence 2, […]; sequence 3, […]; sequence 4, […]. Accordingly, one of skill in the art would recognize the siRNA sequences corresponding to these targets. For P493 human lymphoma B cells, transfection of siRNAs was performed using an Amaxa Nucleotransfection device according to the manufacturer's instructions. […]

[7] = target: LDHA (Homo sapiens, UniProt P00338); details: cited from earlier work
[8] = tested on: P493 human lymphoma B cells; assay: Cell population growth, trypan blue live cell count; format: cell-based
Procedure: as §1
siRNAs targeting human LDHA (ON-TARGETplus SMARTpool) were purchased from Dharmacon Research Inc. Targeting sequences for LDHA were a pool of the following four target sequences: sequence 1, […]; sequence 2, […]; sequence 3, […]; sequence 4, […]. Accordingly, one of skill in the art would recognize the siRNA sequences corresponding to these targets. For P493 human lymphoma B cells, transfection of siRNAs was performed using an Amaxa Nucleotransfection device according to the manufacturer's instructions. Briefly, 2 μg siLDHA ON-TARGETplus SMARTpool or ON-TARGETplus Non-targeting Pool (Dharmacon Research Inc.) were transfected into 2×10^6 cells at 0 hours. […]. The remaining cells were harvested for immunoblot analysis. For P198 human pancreatic cancer cells, transfection of siRNAs was performed using X-tremeGENE siRNA Transfection Reagent (Roche) according to the manufacturer's instructions.

[9] = Solubility in aqueous solution; format: physicochemical; details: relative to the 42 μg dose
Procedure: Although the renewed interest in the Warburg effect is accompanied by a greater understanding of its molecular underpinnings, targeting it for therapeutic purposes has become a major challenge. […] Of note, primary human lymphomas have been documented to have elevated LDHA expression particularly in hypoxic regions. […] A desired FX11 dose of 42 μg for daily intraperitoneal (IP) injection was calculated. An initial serum level of ˜100 μM was expected, assuming a uniform and immediate distribution in the vascular system without accounting for the drug half-life or drug metabolism.

[10] = tested on: c-Myc; assay: Western blot of c-Myc; format: cell-based, human; details: 30 μM FX11, 24 hours
[11] = tested on: AMP kinase (AMPK); assay: Immunoblot of phospho-AMPK; format: cell-based, human; details: 20 hours of exposure
[12] = target: LDH (Homo sapiens, UniProt P00338); assay: LDH activity, decrease in absorbance at 340 nm of NADH; format: biochemical
Procedure: In other studies, pyruvate and NADH were used as the substrates to test the inhibition of LDH by FX11. […] To further document the selective binding of FX11 versus E to LDHA, affinity chromatography was performed with P493 cell lysate using FX11 or E immobilized on Sepharose beads. […] GAPDH is another pivotal glycolytic enzyme that converts NAD^+ to NADH. The question of whether FX11 could inhibit its NAD^+-dependent conversion of glyceraldehyde-3-phosphate to bis-phosphoglycerate was addressed.

[13] = tested on: P493 cells; assay: Conversion of 13C-glucose to 13C-lactate; format: cell-based, human
Procedure: In addition to oxidative stress induced by inhibition of LDHA, it was determined how FX11 affects cellular energy metabolism. […].

[14] = tested on: P493 cells; assay: Oxygen consumption, Clark-type oxygen electrode; format: cell-based, human; details: FX11 treatment
Procedure: Oxygen consumption was measured using a Clark-type oxygen electrode (Oxytherm System, Hansatech Instruments Ltd). 5×10^6 cells in 1 ml medium were placed in the chamber above a membrane which is permeable to oxygen. Oxygen diffuses through the membrane and is reduced at the cathode surface so that a current flows through the circuit which is completed by a thin layer of KCl solution. The current which is generated bears a direct, stoichiometric relationship to the oxygen reduced, and is converted to a digital signal. Determinations were done in triplicate, and the entire experiment was done twice.

For `CCCc1c(O)c(O)c(C(=O)O)c2cc(Cc3ccccc3)c(C)cc12` [FX11, 2,3-dihydroxy-6-methyl-7-(phenylmethyl)-4-propylnaphthalene-1-carboxylic acid], the growth inhibition [1] was “dose-dependent manner”, the ROS production [2] was “increased” and the “cell death (7-AAD and annexin V labeling)” value [3] was “increased”. For the same compound, the mitochondrial membrane potential [4] was “decreased”, the ATP levels [5] was “decrease in ATP levels” and the “effect of hypoxia on inhibition of P198 cells by FX11” value [6] was “sensitized”. For the same compound, the “selectivity LDHA versus LDHB or pLDH” value [7] was “preferentially inhibited LDHA as opposed to LDHB or pLDH”, the “growth inhibition at 1% O2 compared with normoxia” value ([8]; 9 μM FX11) was “increased” and the “proliferative rate of P493 cells with siRNA knock-down of LDHA” value ([8]; 9 μM FX11) was “not further slowed”. For the same compound, the “inhibition of P493 cells in the absence of glucose” value ([8]; glucose-depleted medium) was “could not inhibit P493 cells further”, the “inhibition of P493 cells, dose-response” value ([8]; normoxia (20% O2) and hypoxia (1% O2)) was “dose-dependent manner that was augmented in hypoxia” and the “proliferation of P493 cells” value ([8]; single agent) was “diminished proliferation”. The “solubility limit in aqueous solution” value [9] was “dose could only be doubled before the limit of FX11 in aqueous solution was reached”, the c-Myc levels [10] was “does not affect c-Myc levels” and the “AMP kinase (AMPK) activation” value [11] was “activation”. The “slope of decrease in absorbance at 340 nm” value ([12]; 6 μM FX11, −0.084 without FX11) was −0.029, the LDH activity ([12]; 6 μM, pyruvate and NADH as substrates) was “completely abrogated” and the “concentration inhibiting LDH activity in the conversion of lactate to pyruvate” value ([12]; lactate to pyruvate direction) was 34 µM. The 13C-glutamate [13] was “increase”, the “conversion of 13C-glucose to 13C-lactate” value [13] was “reduced” and the oxygen consumption [14] was “increased oxygen consumption”.
